The values that follow come from patent US8293781B2, “Indole derivatives having cPLA2 inhibiting activity and applications and production methods of the same” (Daiichi Sankyo Company, Limited, priority 2007, dated 2012).

Format in all cases: cell-based
Assay [1] deals with PGD2 production in rat mast cell like cell line RBL-2H3. The assay can be described thus: Antigen-induced PGD2 production system using RBL-2H3 sensitized by DNP specific IgE. The settings on record: 0.5 h, RBL-2H3, anti-DNP-IgE sensitized, antigen 10 μg/ml, 30 minutes. As to the method:
To evaluate the PGD2 production inhibiting activity, the antigen-induced PGD2 production system using rat mast cell like cell line RBL-2H3 sensitized by a dinitrophenol (DNP) specific IgE with reference to the method of Yamashita et al. (see Yamashita, M. et al., Br J Pharmacol 129: 367, 2000) was used. That is, rat mast cell like cell line RBL-2H3 cells were suspended in a Dulbecco's modified Eagle's medium (Nacalai Tesque) containing 10% bovine fetal serum (BioWhittaker) and 10 μg/ml gentamycin (Invitrogen). The infiltrating cell suspension 200 μl containing 1×10^5 cells per well was inoculated to 96-well culture plate and cultured over night under conditions of 5% CO2 and 37° C. The culture supernatant was removed, then the suspension was cultured for 2 hours in the presence of an anti-DNP-IgE antibody (1 μg/ml) for 2 hours to sensitize it. After the sensitization, the supernatant was removed and the test compound solution or solvent was added. The resultant product was precultured for 30 minutes, then 10 μg/ml of antigen (DNP-human serum albumin conjugate) was added to elicite PGD2 production.
30 minutes after antigen stimulus, the culture supernatant was recovered and the amount of PGD2 in the supernatant was measured using an EIA kit (made by Cayman). Based on the measurement value, the test compound concentration (IC50 value) suppressing the amount of PGD2 production at the time of nonaddition of the compound by 50% was calculated.

The subject of assay [2] is TXB2 production in whole blood. Kind of assay: Calcium ionophore-induced TXB2 production system using whole blood. The settings on record: Cavia porcellus, 0.25 h; Hartley guinea pig heparin blood diluted 2-fold, A23187 5 μM, 15 minutes. As to the method: For evaluation of the TXB2 production inhibiting activity, the calcium ionophore-induced TXB2 production system using whole blood with reference to the method of Alanko (see Alanko J., Prostaglandins 45: 193, 1993) was used. That is, heparin blood taken from Hartley guinea pigs was diluted 2-fold by an RPMI1640 medium (Nakalai Tesque) containing 10 μg/ml gentamycin (Invitrogen). The entire blood after dilution was inoculated in a 96-well culture plate in amounts of 200 μl per well, then the test compound solution or solvent was added. After 30 minutes preculture, calcium ionophore (A23187) was added to a final concentration of 5 μM to induce TXB2 production. 15 minutes after stimulus, the supernatant was recovered by centrifugal separation and the amount of TXB2 in the supernatant was measured using an EIA kit (Amersham).
Based on the measurement value, the test compound concentration suppressing 50% of the TXB2 production at the time of non-addition of a compound (IC50 value) was calculated.

Assay [3] relates to Cys-LTs production in rat mast cell like cell line RBL-2H3. The assay can be described thus: Calcium ionophore-induced Cys-LTs production system using RBL-2H3. The settings on record: 1 h, RBL-2H3, A23187 5 μM, one hour. On the procedure:
For the evaluation by LTB4 and Cys-LTs production inhibiting activity, the calcium ionophore-induced LTB4 and Cys-LTs production system using the rat mast cell like cell line RBL-2H3 with reference to the method of Ishiwara et al. (see Ishiwara M. et al., J Pharmacol Exp Ther 307: 583, 2003) was used. That is, rat mast cell like cell line RBL-2H3 cells were suspended in Dulbecco's modified Eagle's medium (Nacalai Tesque) containing 10% bovine fetal serum (BioWhittaker) and 10 μg/ml gentamycin (Invitrogen). The infiltrating cell suspension 200 μl containing 1×10^5 cells per well was inoculated to 96-well culture plate and cultured over night under conditions of 5% CO2 and 37° C. The culture supernatant was removed, then the test compound solution or solvent 50 μl was added. After 30 minutes preculture, calcium ionophore (A23187) was added to a final concentration of 5 μM to induce leukotriene production.
One hour after calcium ionophore stimulus, the culture supernatant was recovered and the amounts of LTB4 and Cys-LTs in the supernatant were measured using an EIA kit (made by Amersham). Based on the measurement values, the test compound concentrations suppressing 50% of the mediator production at the time of non-addition of a compound (IC50 value) were calculated.

For assay [4], the system named is PGE2 production in mouse peritoneal exudate cells. Kind of assay: LPS-induced PGE2 production system using mouse peritoneal exudate cells. The settings on record: LPS 10 μg/ml, 6 hours. As to the method: For evaluation of the PGE2 production inhibiting activity, the lipopolysaccharide (LPS)-induced PGE2 production system using mouse peritoneal exudate cells with reference to the method of Kim et al. (see Kim, Y K et al., Biol Pharm Bull 25: 472, 2002) was used. That is, 2 ml of thioglycolate solution (made by Sigma, Brewer's Thioglycorate medium) per mice were intraperitoneally administered to 8-week old female C3H/HeN mice (Charles River Japan). After 4 days, a phosphate buffer saline (PBS) 5 ml was used to wash the abdominal cavity and the infiltrating cells were recovered. The recovered cells were suspended in a predetermined concentration in an RPMI1640 medium (Nacalai Tesque) containing 10% bovine fetal serum (BioWhittaker) and 10 μg/ml gentamycin (Invitrogen).
The infiltrating cell suspension 100 μl containing 2×10^5 cells per well was inoculated in a 96-well culture plate, then the test compound solution or solvent 50 μl was added. Under conditions of 5% CO2 and 37° C., this was precultured for 15 minutes, then LPS (made by Sigma: L-4524) solution 50 μl (final concentration of LPS of 10 μg/ml) was added, and the mixture was cultured for a further 6 hours. After the end of the culture, the culture supernatant was recovered and the PGE2 concentration in the supernatant was measured using an EIA kit (made by Amersham). Based on the measurement value, the test compound concentration suppressing 50% of the PGE2 production at the time of non-addition of a compound (IC50 value) was calculated.

Molecules are shown by their SMILES. Structures can show the parent of a compound that is named as a salt.

As to `O=C(O)CCc1ccc2c(c1)c(CCc1ccccc1)cn2-c1ccc(O)cc1` [Example 126, 3-[1-(4-hydroxyphenyl)-3-(2-phenylethyl)-1H-indol-5-yl]propanoic acid], the IC50 in assay [1] stood at 1210 nM; in assay [2] it was 1530 nM; in assay [3], 4170 nM; in assay [4], 540 nM.
For `O=C(O)CCc1ccc2c(c1)c(CCc1ccccc1)cn2-c1ccc(F)cc1` [Example 187, 3-[1-(4-fluorophenyl)-3-(2-phenylethyl)-1H-indol-5-yl]propanoic acid] the same measures were 430 nM, 5140 nM, 890 nM and 280 nM.
For `O=C(O)CCc1ccc2c(c1)c(CCc1ccccc1)cn2-c1ccc(OC(F)F)cc1` [Example 190, 3-{1-[4-(difluoromethoxy)phenyl]-3-(2-phenylethyl)-1H-indol-5-yl}propanoic acid 2-amino-2-(hydroxymethyl)propane-1,3-diol salt (1:1)] the same measures were 1110 nM, 1370 nM, 1060 nM and 850 nM.
Turning to `COCc1ccc(-n2cc(CCc3ccccc3)c3cc(CCC(=O)O)ccc32)cc1` [Example 217, 3-{1-[4-(methoxymethyl)phenyl]-3-(2-phenylethyl)-1H-indol-5-yl}propanoic acid 2-amino-2-(hydroxymethyl)propane-1,3-diol salt (1:1)], the IC50 in assay [1] stood at 1120 nM; in assay [2], 2020 nM; in assay [3] it was 1260 nM; in assay [4] it was 1700 nM.
For `O=C(O)CCc1ccc2c(c1)c(CCc1ccccc1)cn2-c1ccc(OCCO)cc1` [Example 229, 3-{1-[4-(2-hydroxyethoxy)phenyl]-3-(2-phenylethyl)-1H-indol-5-yl}propanoic acid 2-amino-2-(hydroxymethyl)propane-1,3-diol salt (1:1)] the same measures were 890 nM, 580 nM, 400 nM and 800 nM.
For `O=C(O)CCc1ccc2c(c1)c(CCc1ccccc1)cn2-c1ccc(Oc2ccccc2)cc1` [Example 231, 3-[1-(4-phenoxyphenyl)-3-(2-phenylethyl)-1H-indol-5-yl]propanoic acid 2-amino-2-(hydroxymethyl)propane-1,3-diol salt (1:1)] the same measures were 760 nM, 540 nM, 300 nM and 500 nM.
